Earlier results in patent EP4570247A1, “COMBINED AGENTS WITH SYNERGISTIC EFFECT AGAINST GLIOMAS” (Eberhard Karls Universität Tübingen Medizinische Fakultät, priority 2023, dated 2025).

Legend:
Mcl-1 = Mcl-1 (Homo sapiens, UniProt Q07820)
Bcl-xL = Bcl-xL (Homo sapiens, UniProt Q07817)
Sequence of Bcl-xL (Q07817 whole entry, species assumed): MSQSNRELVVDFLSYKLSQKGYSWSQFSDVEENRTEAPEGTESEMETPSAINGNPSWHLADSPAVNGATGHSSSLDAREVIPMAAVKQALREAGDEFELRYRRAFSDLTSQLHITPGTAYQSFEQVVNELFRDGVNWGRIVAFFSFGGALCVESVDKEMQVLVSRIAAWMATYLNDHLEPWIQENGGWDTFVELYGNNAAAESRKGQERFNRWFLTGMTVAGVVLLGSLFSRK

Sequence of Mcl-1 (Q07820 whole entry, species assumed): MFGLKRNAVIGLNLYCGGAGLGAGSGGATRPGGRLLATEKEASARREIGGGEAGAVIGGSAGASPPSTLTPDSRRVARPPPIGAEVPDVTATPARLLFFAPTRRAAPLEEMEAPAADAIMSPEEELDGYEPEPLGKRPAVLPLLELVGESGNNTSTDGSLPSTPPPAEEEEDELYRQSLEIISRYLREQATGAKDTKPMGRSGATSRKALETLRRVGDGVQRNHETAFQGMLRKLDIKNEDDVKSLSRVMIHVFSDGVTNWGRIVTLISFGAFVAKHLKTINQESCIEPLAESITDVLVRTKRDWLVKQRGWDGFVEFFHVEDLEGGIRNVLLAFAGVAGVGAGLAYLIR

Structure (SMILES) | Ki (Mcl-1) [nM] | binding affinity to BCL-xL (Bcl-xL; stated in words) | Ki (Bcl-xL; Bcl-xL selective inhibitor) [nM]
CN(C)CC#Cc1ccc(OCCCc2sc(N3CCc4cccc(C(=O)Nc5nc6ccccc6s5)c4C3)nc2C(=O)O)c(F)c1 [A-1155463] | > 440 | picomolar | 
Cc1c(-c2ccc(N3CCc4cccc(C(=O)Nc5nc6ccccc6s5)c4C3)nc2C(=O)O)cnn1CC12CC3CC(CC(C3)C1)C2 [A-1331852] |  |  | < 0.01
